Reference: ChEMBL document CHEMBL4431384, “Indole-based allosteric inhibitors of HIV-1 integrase” (Bioorg Med Chem Lett, 2016)

Experiments:
[1] = target: T1, Human immunodeficiency virus type 1 integrase (Human immunodeficiency virus 1, UniProt Q7ZJM1); test: Inhibition of recombinant full length C-terminal His-tagged HIV1 integrase expressed in Escherichia coli BL21(DE3) cells assessed as inhibition of recombinant C-terminal FLAG-tagged LEDGF/p75-induced integration of viral 32-mer blunt-ended U5 DNA into pBR322 DNA preincubated with enzyme for 30 mins followed by viral and target DNA addition and subsequent addition of LEDGF/p75 after 5 mins measured after 90 mins by HTRF assay; format: cell-based
T1 sequence (Q7ZJM1 whole entry): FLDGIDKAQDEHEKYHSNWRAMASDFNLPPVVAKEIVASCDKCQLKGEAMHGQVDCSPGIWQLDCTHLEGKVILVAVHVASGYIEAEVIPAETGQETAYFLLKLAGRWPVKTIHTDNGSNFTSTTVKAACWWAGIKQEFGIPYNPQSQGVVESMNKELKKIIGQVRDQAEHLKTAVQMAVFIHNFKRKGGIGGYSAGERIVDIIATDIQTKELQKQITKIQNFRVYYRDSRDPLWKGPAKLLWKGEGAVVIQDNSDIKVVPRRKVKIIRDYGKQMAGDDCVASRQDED

[2] = target: T2, Human immunodeficiency virus type 1 integrase (Human immunodeficiency virus 1, UniProt Q7ZJM1, A128T); test: (§1) Inhibition of recombinant full length C-terminal His-tagged HIV1 integrase A128T mutant expressed in Escherichia coli BL21(DE3) cells assessed as reduction in LEDGF/p75 independent 3' processing activity using 32P-labeled blunt ended 21-mer DNA as substrate preincubated for 30 mins followed by substrate addition measured after 1 hr by […]
T2 sequence (Q7ZJM1 entry or part of it A128T): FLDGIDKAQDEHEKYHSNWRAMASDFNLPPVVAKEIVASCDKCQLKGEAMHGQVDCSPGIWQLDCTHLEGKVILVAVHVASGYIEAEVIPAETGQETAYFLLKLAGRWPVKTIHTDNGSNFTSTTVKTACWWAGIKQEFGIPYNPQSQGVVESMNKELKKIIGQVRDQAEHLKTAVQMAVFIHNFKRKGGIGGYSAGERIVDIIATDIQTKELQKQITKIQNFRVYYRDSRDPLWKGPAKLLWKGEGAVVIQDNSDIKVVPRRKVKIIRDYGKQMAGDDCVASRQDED

[3] = target: T1, Human immunodeficiency virus type 1 integrase; test: as §1, with “integrase” for “integrase A128T mutant”
[4] = target: T1, Human immunodeficiency virus type 1 integrase; test: Inhibition of C-terminal FLAG-tagged LEDGF/p75 binding to recombinant full length N-terminal His-tagged HIV1 integrase expressed in Escherichia coli BL21(DE3) cells preincubated with enzyme for 30 mins followed by LEDGF/p75 addition by HTRF assay
[5] = target: T2, Human immunodeficiency virus type 1 integrase; test: Inhibition of recombinant full length HIV1 C-terminal His-tagged integrase A128T mutant multimerization with N-terminal FLAG-tagged integrase A128T mutant expressed in Escherichia coli BL21(DE3) cells after 2.5 hrs by HTRF assay
[6] = target: T1, Human immunodeficiency virus type 1 integrase; test: Inhibition of recombinant full length HIV1 C-terminal His-tagged integrase multimerization with N-terminal FLAG-tagged integrase expressed in Escherichia coli BL21(DE3) cells after 2.5 hrs by HTRF assay

Compound	IC50 [1] [µM]	further results
COC(C(=O)O)c1c(C)nc2ccc(Br)cc2c1-c1ccc(Cl)cc1 (stereo not drawn)	1.3	
Cn1c(C(OC(C)(C)C)C(=O)O)c(-c2ccc3c(c2)CCCO3)c2ccccc21 (stereo not drawn)	4.5	IC50 [2]: 0.9 µM; IC50 [3]: 3.2 µM; IC50 [4]: 28.7 µM; EC50 [5]: 16 µM; EC50 [6]: 16.1 µM
Cn1c(C(OC(C)(C)C)C(=O)O)c(Cc2ccccc2)c2ccccc21 (stereo not drawn)	31.3	
Cn1c(CC(OC(C)(C)C)C(=O)O)c(-c2ccccc2)c2ccccc21 (stereo not drawn)	> 100	
COc1ccc(-n2c(C(OC(C)(C)C)C(=O)O)c(C)c3ccccc32)cc1 (stereo not drawn)	> 100	
COc1ccc(-c2c(C(OC(C)(C)C)C(=O)O)n(C)c3ccccc23)cc1 (stereo not drawn)	32	
COc1ccc(-c2c(C(OC(C)(C)C)C(=O)O)n(Cc3ccccc3)c3ccccc23)cc1 (stereo not drawn)	59.1	
Cn1c(C(OC(C)(C)C)C(=O)O)c(-c2ccccc2)c2ccccc21 (stereo not drawn)	44.1	
